The text below walks through data of patent publication US7928097B2, “Photoreactive compounds and compositions” (priority 2001, dated 2011).

Where two headings read alike, the source gives them in different places. Bounds are passed on as bounds.

In one experiment the test system is HaCaT. Nature of the experiment: Phototoxicity, neutral red dye uptake, HaCaT cells. It counts as cell-based. Here is the method:
(§1) 2×6 ft Cosmolux RA Plus (Cosmedico), 15500/100 W light sources were used, each filtered to attenuate UVB/UVC wavelengths. Irradiance was measured with a Waldmann PUMA meter, calibrated to the source using a double grating Spectroradiometer (Bentham, UK).
(§2) Immediately before use, the compounds were dissolved in warm Earle's Balanced Salt Solution (EBSS), sonicated and vortexed to assist dissolution. For experiments, cells were seeded at densities of 3- or 5×10^4 cells/cm^2. After overnight incubation, washed cells were incubated with test compounds in EBSS for 1 h at 310 K/5% CO2. Cells were then irradiated with 5 J cm^−2 glass filtered UVA (1.77 mW cm^−2: λmax 365 nm) for 50 min. Test compounds were removed and cells either prepared immediately for photogenotoxicity assays, or incubated with complete medium for 24 h before assessing phototoxicity. Control plates were treated identically to the test plates and sham irradiated.
(§3) Phototoxicity was monitored by measuring the uptake of neutral red dye into viable cells. Briefly, after irradiation cells were washed and then incubated with DMEM containing 5% FCS, 1% NEAA and 50 μg ml^−1 neutral red dye for 3 h at 310 K/5% CO2. After this time, cells were rapidly washed with formaldehyde containing 1% (w/v) CaCl2, and solubilised in 50% EtOH containing 1% acetic acid. Absorbance was read at 540 nm against a solubilisation solution as blank. The IC50 value was defined as the concentration of compound that inhibited dye uptake by 50% and was calculated using non-linear regression (Graphpad Prism). Goodness of fit was determined from the R^2 values of the curves and 95% confidence intervals.

For a further experiment, the system named is A2780. Nature of the experiment: Phototoxicity, neutral red dye uptake, A2780 cells. It counts as cell-based. The protocol: as §1, §2, §3
A further experiment concerns A2780CIS. In words: Phototoxicity, neutral red dye uptake, A2780CIS cells. It counts as cell-based. The protocol:
as §1, §2, §3

The test system of experiment [1] is polynucleotide having the sequence ATACATGGTACATA
Nature of the experiment: Photoactivation and binding to 14mer polynucleotide. The conditions noted are these: 1 mM ATACATGGTACATA, blue light as example 9; NMR. The protocol: The procedure of example 9 was repeated with a 1 mM solution of a polynucleotide having the sequence ATACATGGTACATA, and using the compound obtained in example 2 in place of that obtained in example 1.

[2] abbreviates: dark, sham irradiated control, read-out: IC50 Value HaCaT Dark.
Where [3] appears, read: irradiated 5 J cm^-2 UVA, λmax 365 nm, 50 min, neutral red uptake after 24 h, read-out: IC50 Value HaCaT 365 nm.
Where [4] appears, read: dark, sham irradiated control, read-out: IC50 Value A2780 Dark.
Where [5] appears, read: irradiated 5 J cm^-2 UVA, λmax 365 nm, 50 min, neutral red uptake after 24 h, read-out: IC50 Value A2780 365 nm.
Setting [6] is: dark, sham irradiated control, read-out: IC50 Value A2780CIS Dark.
The mark [7] stands for this setting: irradiated 5 J cm^-2 UVA, λmax 365 nm, 50 min, neutral red uptake after 24 h, read-out: IC50 Value A2780CIS 365 nm.

With “Trans,trans,trans-[Pt(N3)2(OH)2(NH3)(2-pic)] [FM171]”, the IC50 with HaCaT (setting [2]) was over 236 µM; in the experiment with HaCaT (setting [3]), 55.3 µM; with A2780 (setting [4]), over 236 µM; in the experiment with A2780 (setting [5]), 51 µM; in the experiment on A2780CIS (setting [6]), over 236 µM; in the experiment with A2780CIS (setting [7]) it was 59.8 µM.

With “Trans,trans,trans-[Pt(N3)2(OH)2(NH3)(4-pic)] [FM174]”, the IC50 in the experiment on HaCaT (setting [2]) is 98.8 µM; in the experiment on HaCaT (setting [3]), 6.5 µM.

As to “Cis,trans-[Pt^IV(en)(N3)2(OH)2] [Example 2]”, the “Binding to 14mer polynucleotide after photoactivation” value in experiment [1] is “binding of species containing the cis-[PtII(en)] moiety to the GG moiety had taken place”.

In the case of “Trans,trans,trans-[Pt(N3)2(OH)2(NH3)(py)] [FM165]”, the IC50 in the experiment on HaCaT (setting [2]) was over 244 µM; in the experiment with HaCaT (setting [3]), 6.1 µM; with A2780 (setting [4]), over 244 µM; in the experiment on A2780 (setting [5]), 1.9 µM; in the experiment on A2780CIS (setting [6]), over 244 µM; in the experiment with A2780CIS (setting [7]) it was 16.9 µM.

“Trans,trans,trans-[Pt(N3)2(OH)2(NH3)(tz)] [FM172]”: the half-maximal inhibitory concentration (IC50) in the experiment with HaCaT (setting [2]) is over 241 µM; in the experiment with HaCaT (setting [3]), 5.8 µM; in the experiment with A2780 (setting [4]), 187 µM; in the experiment with A2780 (setting [5]) it was 5.4 µM; in the experiment with A2780CIS (setting [6]), over 241 µM; in the experiment on A2780CIS (setting [7]), 16.1 µM.

In general, IC50 refers to the concentration at which inhibition is half-maximal.
